# How the values were obtained:
# [1] = tested on: flank organ of mature male Syrian golden hamsters; experiment: Topical comparison in mature male hamsters, right flank organ treated, left flank organ vehicle (Tables II, III); format: in vivo; settings: n=7; for Flank organ Diameter, RFO / Flank organ Weight, RFO / Flank organ Development, RFO (median score): treated right flank organ; for Flank organ Diameter, RFO / Flank organ Weight, RFO: mean; for Flank organ Development, RFO (median score): scale 0 to 4 (0 barely visible, 4 as in mature male); for Flank Organ (Mean Score) Area / Flank Organ (Mean Score) Elevation / Flank Organ (Mean Score) Hair Growth / Flank Organ (Mean Score) Hair Pigmentation / Flank Organ (Mean Score) Skin Pigmentation: RFO, scale 0 to 4
# Excerpt: Each flank organ of mature male Syrian golden hamsters having a mean initial body weight of 105 g. was medicated topically with the compound of Formula I dissolved in ethanol (5 microliters) for twenty-one days. Flank organ hair was clipped three times per week to facilitate application. On the day following the last medication the hamsters were killed with an overdose of sodium pentobarbital. The flank organ parameters and the weights of seminal vesicles, adrenals and thymus glands were determined. Flank organ diameter was measured parallel to the breadth of the hamster with vernier calipers. Wet weights were obtained on flank organs excised around the periphery of the pigmented area. The topical activity of the compound of Formula I was also compared with that of 17β-hydroxy-17α-propylandrost-4-en-3-one, an antiandrogen, and hydrocortisone. In this experiment the right flank organ was treated with the test compound while vehicle-treated left flank organ served as control. […] In addition, the individual characteristics of the flank organ, elevation (thickness relative to adjacent skin), area, hair pigment, skin pigment and hair growth were all scored separately on a scale of 0 to 4.
# [2] = target: T1, hamster flank organ cytosol receptor (Mesocricetus auratus, UniProt A0A1U7QL32); experiment: Binding competition with 3H-dihydrotestosterone in hamster flank organ cytosol in vitro (Table VI); parameters: species or system Syrian golden hamsters; settings: 3H-DHT 2 nM, two hours, no antagonist 13.96
# T1 construct: The homogenate was centrifuged (120,000×g for 45 min.) and the cytosol was frozen and stored at -70° C; from tissue; host or cells: flank organ cytosol of castrated male Syrian golden hamsters
# T1 sequence (A0A1U7QL32 1-900): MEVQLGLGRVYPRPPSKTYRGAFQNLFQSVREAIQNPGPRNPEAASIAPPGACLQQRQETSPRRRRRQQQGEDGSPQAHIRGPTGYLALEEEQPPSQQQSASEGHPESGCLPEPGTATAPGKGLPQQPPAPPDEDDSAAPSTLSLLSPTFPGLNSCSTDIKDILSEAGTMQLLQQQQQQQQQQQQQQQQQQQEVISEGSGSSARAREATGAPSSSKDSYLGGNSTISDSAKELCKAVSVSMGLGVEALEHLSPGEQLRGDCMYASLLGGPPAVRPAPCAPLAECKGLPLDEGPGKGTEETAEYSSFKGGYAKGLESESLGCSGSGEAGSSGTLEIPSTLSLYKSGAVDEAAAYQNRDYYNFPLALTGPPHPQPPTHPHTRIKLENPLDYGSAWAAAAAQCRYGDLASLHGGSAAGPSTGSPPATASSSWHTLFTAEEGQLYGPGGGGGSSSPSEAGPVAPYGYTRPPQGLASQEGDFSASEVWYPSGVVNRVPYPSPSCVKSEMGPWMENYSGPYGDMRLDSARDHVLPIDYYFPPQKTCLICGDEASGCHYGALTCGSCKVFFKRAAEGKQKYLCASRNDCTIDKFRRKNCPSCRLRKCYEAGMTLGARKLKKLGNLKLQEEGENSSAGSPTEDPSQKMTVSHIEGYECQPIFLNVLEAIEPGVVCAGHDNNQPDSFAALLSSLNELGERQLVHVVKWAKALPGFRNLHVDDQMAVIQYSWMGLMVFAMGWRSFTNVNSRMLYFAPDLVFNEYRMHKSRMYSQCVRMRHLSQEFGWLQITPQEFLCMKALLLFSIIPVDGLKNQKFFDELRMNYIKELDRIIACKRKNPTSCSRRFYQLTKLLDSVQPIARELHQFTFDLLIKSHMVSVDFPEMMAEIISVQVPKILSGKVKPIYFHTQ
# Experimental: The flank organs of twelve mature male Syrian golden hamsters each weighing from 120 to 140 g. and having been castrated 16-18 hours earlier were excised, dissected under the microscope to remove the dermis and the muscle layers and homogenized in buffer (1.5 volumes of 50 mM Tris, 0.5 mM mercaptoethanol and 0.1 mM ethylenediamine tetracetate, pH 7.4). The homogenate was centrifuged (120,000×g for 45 min.) and the cytosol was frozen and stored at -70° C. Six of the cytosol samples were thawed at room temperature, pooled and used for evaluation of in vitro binding.
# [3] = tested on: hair growth on backs of male adrenalectomized Sprague-Dawley rats; experiment: Reduction in hair growth in male adrenalectomized rats, topical (Table VII); format: in vivo; settings: 0.1% solution topical, n=12
# Excerpt: Hair was clipped from the backs of male Sprague-Dawley rats, having a mean body weight of 300 g., three weeks after adrenalectomy. The clipped area (4 cm.×4 cm.) was medicated with approximately 500 microliters of 0.1% solution of the compound of Formula I, or hydrocortisone or 500 microliters of ethanol alone for a two-week pretreatment period. The clipped area was then depilated and the medication with either solution or ethanol alone was continued for 4 weeks. The density of hair growth was scored visually at weekly intervals and at termination of the experiment on a scale of 0 to 4 (0, no hair growth; 4, complete hair regrowth). Skinfold thickness was also measured using a micrometer at the end of the experiment, which was conducted blind.
# [4] = tested on: castrated immature male Syrian golden hamsters; experiment: Systemic antiandrogenic and glucocorticoid activity, subcutaneous, with testosterone propionate (Table IV); format: in vivo; settings: testosterone propionate 0.4 mg/kg/day alone for 14 days (androgen-treated control); mean, n=8
# Experimental: A solution of the compound of Formula I in cottonseed oil was administered subcutaneously at 1 ml./kg. to castrated immature male Syrian golden hamsters having a mean initial body weight of 79 g. for 14 consecutive days concurrently with testosterone propionate. On the day following the last medication the hamsters were killed, the flank organ parameters were determined and the weights of seminal vesicles, adrenals and thymus glands were obtained.
# [5] = after depilation, median score, scale 0 to 4
Structure (SMILES),"Flank organ Diameter, RFO ([1]; 5 μg/RFO for 21 days) [mm]","Flank organ Weight, RFO ([1]; 5 μg/RFO for 21 days) [mg]","Flank organ Development, RFO (median score) ([1]; 5 μg/RFO for 21 days)","Flank organ Diameter, RFO ([1]; 50 μg/RFO for 21 days) [mm]","Flank organ Weight, RFO ([1]; 50 μg/RFO for 21 days) [mg]","Flank organ Development, RFO (median score) ([1]; 50 μg/RFO for 21 days)",Flank Organ (Mean Score) Area ([1]; 5 μg/flank organ for 21 days),Flank Organ (Mean Score) Elevation ([1]; 5 μg/flank organ for 21 days),Flank Organ (Mean Score) Hair Growth ([1]; 5 μg/flank organ for 21 days),Flank Organ (Mean Score) Hair Pigmentation ([1]; 5 μg/flank organ for 21 days),Flank Organ (Mean Score) Skin Pigmentation ([1]; 5 μg/flank organ for 21 days),Flank Organ (Mean Score) Area ([1]; 50 μg/flank organ for 21 days),Flank Organ (Mean Score) Elevation ([1]; 50 μg/flank organ for 21 days),Flank Organ (Mean Score) Hair Growth ([1]; 50 μg/flank organ for 21 days),Flank Organ (Mean Score) Hair Pigmentation ([1]; 50 μg/flank organ for 21 days),Flank Organ (Mean Score) Skin Pigmentation ([1]; 50 μg/flank organ for 21 days),further results
"CCC[C@]1(O)CC[C@H]2[C@@H]3CCC4=CC(=O)CC[C@]4(C)[C@H]3CC[C@@]21C [17β-Hydroxy-17α-propylandrost-4-en-3-one, 17β-hydroxy-17α-propylandrost-4-en-3-one]",4.9,33.8,3,3.9,21.4,2,3.1,2.6,3.1,3.3,4.0,1.6,1.4,2.3,2.6,2.7,
"C[C@]12CCC(=O)C[C@@H]1CC[C@@H]1[C@@H]2CC[C@]2(C)[C@@H](O)CC[C@@H]12 [DHT, Dihydrotestosterone, reference compound]",,,,,,,,,,,,,,,,,"% Bound (Mean ± SE) of 3H-dihydrotestosterone ([2]; unlabelled antagonist 20 nM, molar ratio 10): 7.95 ± .41%; % Bound (Mean ± SE) of 3H-dihydrotestosterone ([2]; unlabelled antagonist 200 nM, molar ratio 100): 4.22 ± .001%; % Bound (Mean ± SE) of 3H-dihydrotestosterone ([2]; unlabelled antagonist 2000 nM, molar ratio 1000): 4.00 ± .22%"
"C[C@]12CCC(=O)C=C1CC[C@@H]1[C@@H]2[C@@H](O)C[C@@]2(C)[C@H]1CC[C@]2(O)C(=O)CO [Hydrocortisone, hydrocortisone]",5.7,38.5,4,5.7,39.1,4,3.7,3.7,1.9,3.7,3.9,4.0,3.5,1.3,3.0,3.4,"Hair Growth Score, Treatment week 1 [3, 5]: 0; Hair Growth Score, Treatment week 2 [3, 5]: 0; Hair Growth Score, Treatment week 3 [3, 5]: 1; Hair Growth Score, Treatment week 4 [3, 5]: 2; Skinfold Thickness, Treatment week 4 ([3]; mean, vehicle 2.51): 2.11 mm; Hair Growth Score, Pretreatment week 1 ([3]; median score, scale 0 to 4 (0 no hair growth, 4 complete regrowth)): 2; Hair Growth Score, Pretreatment week 2 ([3]; median score, scale 0 to 4): 3"
"CCC(=O)O[C@H]1CC[C@H]2[C@@H]3CCC4=CC(=O)CC[C@]4(C)[C@H]3CC[C@]12C [Testosterone Propionate, testosterone propionate, reference compound]",,,,,,,,,,,,,,,,,Final Body Weight [4]: 106; Flank Organ Diameter [4]: 4.3 mm; Flank Organ Wet Weight [4]: 22.8 mg; Organ Weights: Adrenals [4]: 18.2 mg; Organ Weights: Seminal Vesicles [4]: 157 mg; Organ Weights: Thymus [4]: 58 mg
